Reference: patent publication US20100273816A1, “Quinazoline Compounds” (priority 2007, published 2010)
pIC50: −log10 of the molar value.

Experiments:
[1] = biological target: T1, human LXRβ (Homo sapiens, UniProt P55055); assay: Ligand-binding test procedure for human LXRβ (3H T0901317 tracer, flash plates); settings: biotinylated hLXRβ from E. coli extract, +4° C. over night, read-out: hLXRB binding assay Mean IC50
T1 construct: biotin (biotinylated); made in house; host or cells: E. coli (crude extract)
T1 sequence (P55055 1-460): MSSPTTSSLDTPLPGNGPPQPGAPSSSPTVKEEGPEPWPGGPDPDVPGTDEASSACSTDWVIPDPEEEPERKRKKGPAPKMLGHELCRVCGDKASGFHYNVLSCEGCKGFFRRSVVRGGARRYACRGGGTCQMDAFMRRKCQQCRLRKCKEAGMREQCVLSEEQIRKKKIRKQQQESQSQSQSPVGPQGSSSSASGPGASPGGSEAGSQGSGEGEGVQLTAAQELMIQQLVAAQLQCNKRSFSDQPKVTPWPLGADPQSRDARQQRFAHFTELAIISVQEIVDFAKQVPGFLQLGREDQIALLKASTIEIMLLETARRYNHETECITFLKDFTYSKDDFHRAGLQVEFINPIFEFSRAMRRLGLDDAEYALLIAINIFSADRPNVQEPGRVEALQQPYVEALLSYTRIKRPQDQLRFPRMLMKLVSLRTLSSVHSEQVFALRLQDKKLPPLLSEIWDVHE
Experimental: I. Ligand-Binding Test Procedure for Human LXRβ.
(§1) Buffer: 100 mM KCl, 100 mM TRIS (pH 7.4 at +4° C.), 8.6% glycerol, 0.1 mM PMSF*, 2 mM MTG*, 0.2% CHAPS (* not used in wash buffer)
Receptor source: E. coli extract from cells expressing biotinylated hLXRβ. Extract was made in a similar buffer as above, but with 50 mM TRIS.
(§2) Washed streptavidin and coated flash plates with wash buffer.
(§3) Diluted receptor extract to give Bmax ˜4000 cpm and add to the wells.
(§4) Wrapped the plates in aluminum foil and stored them at +4° C. over night.
(§5) Made a dilution series in DMSO of the test ligands.
(§6) Made a 5 nM solution of the radioactive tracer in buffer.
Mixed 250 μl diluted tracer with 50 of the test ligand from each concentration of the dilution series.
(§7) Washed the receptor-coated flash plates.
(§8) Added 200 μl per well of the ligand/radiolabel mixture to the receptor-coated flash plates.
(§9) Wrapped the plates in aluminum foil and incubate at +4° C. over night.
(§10) Aspirated wells, and wash the flashed plates. Sealed the plate.
(§11) Measured the remaining radioactivity in the plate.

[2] = biological target: T2, human LXRα (Homo sapiens, UniProt Q13133); assay: Ligand-binding test procedure for human LXRα (3H T0901317 tracer, flash plates); settings: biotinylated hLXRα from E. coli extract, +4° C. over night, read-out: hLXRa binding assay Mean IC50
T2 construct: biotin (biotinylated); made in house; host or cells: E. coli (crude extract)
T2 sequence (Q13133 1-447): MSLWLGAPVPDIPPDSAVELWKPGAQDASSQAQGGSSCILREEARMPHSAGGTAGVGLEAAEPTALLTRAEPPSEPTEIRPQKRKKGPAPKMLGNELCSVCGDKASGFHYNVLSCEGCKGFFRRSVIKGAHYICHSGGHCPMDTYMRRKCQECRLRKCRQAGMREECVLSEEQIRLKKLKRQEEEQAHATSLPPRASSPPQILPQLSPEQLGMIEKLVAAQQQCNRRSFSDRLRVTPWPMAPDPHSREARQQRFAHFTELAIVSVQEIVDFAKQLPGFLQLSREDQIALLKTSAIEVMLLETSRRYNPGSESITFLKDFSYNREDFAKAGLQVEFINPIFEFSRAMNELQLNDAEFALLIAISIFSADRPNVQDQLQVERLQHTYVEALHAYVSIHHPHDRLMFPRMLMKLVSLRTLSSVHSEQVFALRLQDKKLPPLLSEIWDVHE
Experimental: II. Ligand-Binding Test Procedure for Human LXRα.
as §1
Receptor source: E. coli extract from cells expressing biotinylated hLXRα. Extract was made in a similar buffer as above, but with 50 mM TRIS.
as §2, §3, §4, §5, §6
Mixed 250 μl diluted tracer with 5 μl of the test ligand from each concentration of the dilution series.
as §7, §8, §9, §10, §11

pIC50 [1]	pIC50 [2]	Structure (SMILES)
6.82	5.74	CS(=O)(=O)c1cccc(Oc2cccc(-c3ncnc4c(C(F)(F)F)cccc34)c2)c1 [Example 4, 4-{3-[3-(Methylsulfonyl)phenoxy]phenyl}-8-(trifluoromethyl)quinazoline]
7.00	5.80	CCS(=O)(=O)c1cccc(Oc2cccc(-c3ncnc4c(C(F)(F)F)cccc34)c2)c1 [Example 5, 4-{3-[3-(ethylsulfonyl)phenoxy]phenyl}-8-(trifluoromethyl)quinazoline]
7.20	5.99	CC(C)S(=O)(=O)c1cccc(Oc2cccc(-c3ncnc4c(C(F)(F)F)cccc34)c2)c1 [Example 6, 4-{3-[3-(isopropylsulfonyl)phenoxy]phenyl}-8-(trifluoromethyl)quinazoline]
5.44	4.58	CS(=O)(=O)c1ccc(Oc2cccc(-c3ncnc4c(C(F)(F)F)cccc34)c2)cc1 [Example 10, 4-{3-[4-(methylsulfonyl)phenoxy]phenyl}-8-(trifluoromethyl)quinazoline]
5.65	< 6.00	CCS(=O)(=O)c1ccc(Oc2cccc(-c3ncnc4c(C(F)(F)F)cccc34)c2)cc1 [Example 11, 4-{3-[4-(ethylsulfonyl)phenoxy]phenyl}-8-(trifluoromethyl)quinazoline]
< 6.00	< 6.00	CCCS(=O)(=O)c1ccc(Oc2cccc(-c3ncnc4c(C(F)(F)F)cccc34)c2)cc1 [Example 12, 4-{3-[4-(propylsulfonyl)phenoxy]phenyl}-8-(trifluoromethyl)quinazoline]
5.81	< 6.00	CC(C)S(=O)(=O)c1ccc(Oc2cccc(-c3ncnc4c(C(F)(F)F)cccc34)c2)cc1 [Example 13, 4-{3-[4-(isopropylsulfonyl)phenoxy]phenyl}-8-(trifluoromethyl)quinazoline]
4.72	4.19	O=S(=O)(CCCO)c1ccc(Oc2cccc(-c3ncnc4c(C(F)(F)F)cccc34)c2)cc1 [Example 19, 3-[(4-{3-[8-(trifluoromethyl)quinazolin-4-yl]phenoxy}phenyl)sulfonyl]propan-1-ol]
6.40	5.20	CS(=O)(=O)c1cc(F)cc(Oc2cccc(-c3ncnc4c(C(F)(F)F)cccc34)c2)c1 [Example 20, 4-{3-[3-fluoro-5-(methylsulfonyl)phenoxy]phenyl}-8-(trifluoromethyl)quinazoline]
6.55	5.55	CS(=O)(=O)c1cccc(COc2cccc(-c3ncnc4c(C(F)(F)F)cccc34)c2)c1 [Example 25, 4-(3-{[3-(methylsulfonyl)benzyl]oxy}phenyl)-8-(trifluoromethyl)quinazoline]

Further lines, the compound ahead of its results:

Structure (SMILES)	pIC50 [1]	pIC50 [2]
COCCCS(=O)(=O)c1cccc(Oc2cccc(-c3ncnc4c(C(F)(F)F)cccc34)c2)c1 [Example 7, 4-(3-{3-[(3-methoxypropyl)sulfonyl]phenoxy}phenyl)-8-(trifluoromethyl)quinazoline]	6.19	5.30
CCCS(=O)(=O)c1cc(Cl)cc(Oc2cccc(-c3ncnc4c(C(F)(F)F)cccc34)c2)c1 [Example 8, 4-{3-[3-chloro-5-(propylsulfonyl)phenoxy]phenyl}-8-(trifluoromethyl)quinazoline]	< 6.00	< 6.00
O=S(=O)(CCCO)c1cc(Cl)cc(Oc2cccc(-c3ncnc4c(C(F)(F)F)cccc34)c2)c1 [Example 9, 3-[(3-chloro-5-{3-[8-(trifluoromethyl)quinazolin-4-yl]phenoxy}phenyl)sulfonyl]propan-1-ol]		< 6.00
CCCS(=O)(=O)c1cccc(Oc2cccc(-c3ncnc4c(C(F)(F)F)cccc34)c2)c1 [Example 15, 4-{3-[3-(propylsulfonyl)phenoxy]phenyl}-8-(trifluoromethyl)quinazoline]	6.35	5.35
CC(C)CS(=O)(=O)c1cccc(Oc2cccc(-c3ncnc4c(C(F)(F)F)cccc34)c2)c1 [Example 16, 4-{3-[3-(isobutylsulfonyl)phenoxy]phenyl}-8-(trifluoromethyl)quinazoline]	< 6.00	< 6.00
CC(C)CCS(=O)(=O)c1cccc(Oc2cccc(-c3ncnc4c(C(F)(F)F)cccc34)c2)c1 [Example 17, 4-(3-{3-[(3-methylbutyl)sulfonyl]phenoxy}phenyl)-8-(trifluoromethyl)quinazoline]	< 6.00	< 6.00
O=S(=O)(CCCO)c1cccc(Oc2cccc(-c3ncnc4c(C(F)(F)F)cccc34)c2)c1 [Example 18, 3-[(3-{3-[8-(trifluoromethyl)quinazolin-4-yl]phenoxy}phenyl)sulfonyl]propan-1-ol]	6.39	5.45
Cc1nc(-c2cccc(Oc3cccc(S(C)(=O)=O)c3)c2)c2cccc(C(F)(F)F)c2n1 [Example 21, 2-methyl-4-{3-[3-(methylsulfonyl)phenoxy]phenyl}-8-(trifluoromethyl)quinazoline]	6.36	4.86
CS(=O)(=O)c1cccc(Oc2cccc(-c3ncnc4c(Cl)cccc34)c2)c1 [Example 24, 8-chloro-4-{3-[3-(methylsulfonyl)phenoxy]phenyl}quinazoline]	6.53	5.27
CS(=O)(=O)c1cccc(-c2cccc(-c3ncnc4c(C(F)(F)F)cccc34)c2)c1 [Example 27, 4-(3′-Methanesulfonyl-biphenyl-3-yl)-8-trifluoromethyl-quinazoline]	6.71	5.78
Cc1nc(-c2cccc(-c3cccc(S(C)(=O)=O)c3)c2)c2cccc(C(F)(F)F)c2n1 [Example 37, 4-(3′-Methanesulfonyl-biphenyl-3-yl)-2-methyl-8-trifluoromethyl-quinazoline]	7.16	6.15
Cc1nc(-c2cccc(-c3ccc(S(C)(=O)=O)cc3)c2)c2cccc(C(F)(F)F)c2n1 [Example 38, 4-(4′-Methanesulfonyl-biphenyl-3-0)-2-methyl-8-trifluoromethyl-quinazoline]	5.20	
CCc1nc(-c2cccc(-c3cccc(S(C)(=O)=O)c3)c2)c2cccc(C(F)(F)F)c2n1 [Example 40, 2-ethyl-4-[3′-(methylsulfonyl)biphenyl-3-yl]-8-(trifluoromethyl)quinazoline]	7.01	5.94
CCCc1nc(-c2cccc(-c3cccc(S(C)(=O)=O)c3)c2)c2cccc(C(F)(F)F)c2n1 [Example 41, 4-[3′-(methylsulfonyl)biphenyl-3-yl]-2-propyl-8-(trifluoromethyl)quinazoline]	6.76	< 6.00
CC(C)c1nc(-c2cccc(-c3cccc(S(C)(=O)=O)c3)c2)c2cccc(C(F)(F)F)c2n1 [Example 42, 2-isopropyl-4-[3′-(methylsulfonyl)biphenyl-3-yl]-8-(trifluoromethyl)quinazoline]	6.34	5.49
CS(=O)(=O)c1cccc(-c2cccc(-c3nc(-c4ccccc4)nc4c(C(F)(F)F)cccc34)c2)c1 [Example 43, 4-[3′-(methylsulfonyl)biphenyl-3-yl]-2-phenyl-8-(trifluoromethyl)quinazoline]	6.51	4.69
CC(C)(C(=O)O)c1ccc(COc2cccc(-c3ncnc4c(C(F)(F)F)cccc34)c2)cc1 [Example 44, 2-methyl-2-[4-({3-[8-(trifluoromethyl)quinazolin-4-yl]phenoxy}methyl)phenyl]propanoic acid]	< 6.00	< 6.00
O=C(O)Cc1ccc(COc2cccc(-c3ncnc4c(C(F)(F)F)cccc34)c2)cc1 [Example 45, [4-({3-[8-(trifluoromethyl)quinazolin-4-yl]phenoxy}methyl)phenyl]acetic acid]	5.28	< 6.00
